Results from paper PMC6979073, “Control of glutamate release by complexes of adenosine and cannabinoid receptors” (BMC Biology, 2020).
Read-outs that look alike come from different tables or passages of the source.

Experiments:
[1] = test system: rat striatal synaptosomes; assay: Depolarization-evoked glutamate release from striatal synaptosomes; type: cell-based; details: for Evoked glutamate release, expressed as the difference in % of the control value: WIN55,212-2 0.1 μM, n = 6
[2] = target: A2AR-CB1R heterotetramer (Homo sapiens, UniProt P21554+P29274)
A2AR-CB1R heterotetramer, sequence (P29274 whole entry): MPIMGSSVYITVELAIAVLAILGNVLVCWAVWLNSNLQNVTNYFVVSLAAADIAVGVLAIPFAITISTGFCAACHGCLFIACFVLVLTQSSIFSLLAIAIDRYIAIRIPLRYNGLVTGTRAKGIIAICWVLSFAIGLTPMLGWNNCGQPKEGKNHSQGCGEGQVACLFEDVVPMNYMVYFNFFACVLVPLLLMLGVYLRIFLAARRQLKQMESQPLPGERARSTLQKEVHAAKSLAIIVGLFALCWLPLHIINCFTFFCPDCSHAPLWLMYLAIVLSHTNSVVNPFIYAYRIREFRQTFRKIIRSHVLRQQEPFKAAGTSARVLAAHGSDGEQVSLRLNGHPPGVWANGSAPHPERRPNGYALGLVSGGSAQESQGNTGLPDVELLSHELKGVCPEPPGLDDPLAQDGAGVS
A2AR-CB1R heterotetramer, sequence (P21554 whole entry): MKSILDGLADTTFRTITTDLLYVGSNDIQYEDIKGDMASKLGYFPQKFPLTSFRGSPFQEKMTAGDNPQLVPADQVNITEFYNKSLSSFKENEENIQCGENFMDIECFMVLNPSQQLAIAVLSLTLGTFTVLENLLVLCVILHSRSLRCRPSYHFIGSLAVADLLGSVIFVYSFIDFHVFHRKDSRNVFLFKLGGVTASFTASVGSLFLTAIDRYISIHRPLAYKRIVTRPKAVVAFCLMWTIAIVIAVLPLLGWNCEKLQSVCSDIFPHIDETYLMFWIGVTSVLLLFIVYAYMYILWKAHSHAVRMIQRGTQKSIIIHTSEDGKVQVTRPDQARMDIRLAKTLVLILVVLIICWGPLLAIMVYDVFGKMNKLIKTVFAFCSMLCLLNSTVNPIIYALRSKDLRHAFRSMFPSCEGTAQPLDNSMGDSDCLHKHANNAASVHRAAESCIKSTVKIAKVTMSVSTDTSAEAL

[3] = target: CB1R (Homo sapiens, UniProt P21554); details: CP55940 200 nM; cells transfected with CB1R
CB1R (Homo sapiens, UniProt P21554), sequence (P21554 whole entry): as above

[4] = target: A2AR-CB1R heteromer (Homo sapiens, UniProt P21554+P29274)
A2AR-CB1R heteromer, sequence (P29274 whole entry): as the sequence (P29274 whole entry) above
A2AR-CB1R heteromer, sequence (P21554 whole entry): as the sequence (P21554 whole entry) above

[5] = test system: CB1R; design: method as in PMID 16365309, PMID 1331766; details: cited from earlier work
[6] = test system: CB1R; design: method as in PMID 16365309, PMID 1331766; details: cited from earlier work; remark: listed apart in the source
[7] = PTX 10 ng/ml overnight or CTX 100 ng/ml 2 h

Compound: CCNC(=O)[C@H]1O[C@@H](n2cnc3c(N)nc(NCCc4ccc(CCC(=O)O)cc4)nc32)[C@H](O)[C@@H]1O [CGS21680]
- Effect on the inhibition of glutamate release by 0.01 and 0.03 μM of WIN55,212-2 ([1]; CGS21680 0.03 μM or SCH58261 0.1 μM): fully prevented
- Effect of co-application on the effect of WIN55,212-2 on glutamate release ([1]; CGS21680 0.03 μM plus SCH58261 0.1 μM): did not significantly modify

Compound: CCCCCCC(C)(C)c1ccc([C@@H]2C[C@H](O)CC[C@H]2CCCO)c(O)c1 [CP55940]
- Effect on CGS21680-mediated increase in cAMP [2]: counteracted CGS21680-mediated increase in cAMP
- Effect on cAMP formation induced by forskolin (500 nM) [3]: decreased cAMP formation
- Effect on the concentration-response curve of NECA (Gs activation) ([4]; CP55940 10 μM, Gαs-YFP): did not produce a significant shift
- Concentration-response curve of ligand-induced changes in BRET: G protein coupling ([4]; cells co-transfected with either Gαs-, Gαi1- or Gαq-YFP): could only be obtained when the cells were transfected with Gαi-YFP

Compound: Nc1nc2c(cnn2CCc2ccccc2)c2nc(-c3ccco3)nn12 [SCH58261]
- Effect of co-application on the effect of WIN55,212-2 on glutamate release [1]: did not significantly modify
- Effect on the concentration-response inhibitory curve of WIN55,212-2 [1]: shifted to the right
- Effect on the inhibition of glutamate release by 0.01 and 0.03 μM of WIN55,212-2 [1]: fully prevented
- Effect on evoked glutamate release ([1]; SCH58261 10 μM): significantly inhibited the evoked glutamate release

Compound: Cc1c(C(=O)c2cccc3ccccc23)c2cccc3c2n1[C@H](CN1CCOCC1)CO3 [WIN55,212-2]
- Evoked glutamate release, expressed as the difference in % of the control value ([1]; synaptosomes incubated 4 h at 4 °C with PTX (2 μg/ml)): 114.6% ± 6.8
- Evoked glutamate release, expressed as the difference in % of the control value ([1]; toxin-naïve synaptosomes): 82.9% ± 3.6
- Further inhibition of evoked glutamate release in the presence of SCH58261 (10 μM) ([1]; WIN55212-2 0.3 μM): could not be further inhibited
- EC50 ([1]; WIN55,212-2 alone, 30 mM KCl, read-out: EC50 of inhibition of evoked glutamate release): 5.5 nM
- Maximal effect on evoked glutamate release ([1]; at 0.03 μM): 77.0 ± 3.0 % of DMSO control
- Potency relative to CP55940 at eliciting Gq-dependent intracellular calcium increase [5]: more
- Potency relative to CP55940 at inhibiting forskolin-induced cAMP production [6]: less potent

Compound: cholera toxin [CTX]
- Effect on CGS21680-induced cAMP increase [2]: blockade
- Effect on CP55940-induced cAMP decrease [2]: also blocked

Compound: pertussis toxin [PTX]
- Effect on WIN55,212-2 (0.1 μM) inhibition of glutamate release ([1]; PTX 2 μg/ml, 4 h at 4 °C): fully prevented this inhibition
- Effect on CGS21680-induced cAMP increase [2, 7]: also blocked
- Effect on CP55940-induced cAMP decrease [2, 7]: blockade
